Results: patent US20170253581A1, “SUBSTITUTED HETEROCYCLES AS c-MYC TARGETING AGENTS” (Northwestern University, priority 2016, published 2017)

molecular target: Myc/Max binding to DNA (Homo sapiens, UniProt P01106); experiment: Electrophoretic mobility shift assay (EMSA) of Myc/Max binding to DNA; assay type: biochemical; conditions: not given
Procedure: We also tested our best hit compound Min9 (NUCC-0176234) and newly synthesized analogs for effects of these compounds on Myc/Max binding to DNA in electrophoretic mobility shift assays (EMSAs). (See FIG. 5a and FIG. 5b). We expected the active compounds to impair Myc/Max binding to DNA. Several strucutural analogs of Min9 were tested over multiple doses for inhibiting Myc-DNA binding and we observed a dose-dependent inhibition. (See FIG. 5c).
Additional compounds were synthesized and tested in the EMSA assay at concentrations of 200 μM, 100 μM, and 50 μM.

Chain of Myc/Max binding to DNA (P01106 whole entry): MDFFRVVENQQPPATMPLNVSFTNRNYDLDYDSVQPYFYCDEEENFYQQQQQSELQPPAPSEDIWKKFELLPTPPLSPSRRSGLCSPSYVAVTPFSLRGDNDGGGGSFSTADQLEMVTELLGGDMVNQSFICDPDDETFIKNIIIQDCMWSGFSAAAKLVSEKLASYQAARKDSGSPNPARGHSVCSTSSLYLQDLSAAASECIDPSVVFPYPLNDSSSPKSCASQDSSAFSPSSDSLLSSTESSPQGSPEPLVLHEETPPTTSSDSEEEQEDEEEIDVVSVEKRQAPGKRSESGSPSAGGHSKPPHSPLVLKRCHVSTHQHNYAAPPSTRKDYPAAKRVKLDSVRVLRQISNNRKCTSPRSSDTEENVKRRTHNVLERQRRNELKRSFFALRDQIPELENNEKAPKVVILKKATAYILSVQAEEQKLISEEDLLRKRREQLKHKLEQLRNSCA

| Compound | IC50 [µM] |
| --- | --- |
| CCc1ccc(Oc2c(-c3ccc(OCCc4cccc(C(F)(F)F)c4)cc3O)n[nH]c2C(F)(F)F)cc1 [NUCC-0176245] | 95 |
| COc1ccc(-c2c(-c3ccc(OCc4ccc(Cl)cc4)cc3O)n[nH]c2C(F)(F)F)cc1OC [compound 0196283] | 49 |
| CCc1ccc(Oc2c(-c3ccc(OCc4cccc(Cl)c4)cc3O)n[nH]c2C(F)(F)F)cc1 [compound 0196295] | 66 |
| Cn1cc(Oc2ccccc2Cl)c(-c2ccc(OCc3ccc(Cl)cc3)cc2O)n1 [compound 0196305] | 39 |

same assay, conditions: EMSA, 100 uM test compound; read-out: Bound DNA (%) (100uM)

| remaining activity at 100 µM [%] | Compound |
| --- | --- |
| 73 | CCc1ccc(Oc2c(-c3ccc(OCc4cccc(Cl)c4)cc3O)nn(C)c2C(F)(F)F)cc1 [compound 0196296] |
| 45 | CCc1ccc(Oc2c(-c3ccc(OCc4cccc(OC)c4)cc3O)n[nH]c2C(F)(F)F)cc1 [compound 0196297] |
| 98 | CCc1ccc(Oc2c(-c3ccc(OCc4cccc(OC)c4)cc3O)nn(C)c2C(F)(F)F)cc1 [compound 0196298] |
| 138 | Cc1ccc(C)c(Oc2cn(C)nc2-c2ccc(OCCN3CCCCC3)cc2O)c1 [compound 0196299] |
| 43 | Oc1cc(OCc2ccc(Cl)cc2)ccc1-c1n[nH]c(C(F)(F)F)c1Oc1cccc(F)c1 [compound 0196301] |
| 65 | Cn1nc(-c2ccc(OCc3ccc(Cl)cc3)cc2O)c(Oc2cccc(F)c2)c1C(F)(F)F [compound 0196302] |
| 72 | Oc1cc(OCc2ccc(Cl)cc2)ccc1-c1n[nH]cc1Oc1ccc(Cl)cc1 [compound 0196303] |
| 13 | Cn1nc(-c2ccc(OCc3ccc(Cl)cc3)cc2O)c(Oc2ccccc2Cl)c1C(F)(F)F [compound 0196304] |
| 3 | Cn1cc(Oc2ccccc2Cl)c(-c2ccc(OCc3ccc(Cl)cc3)cc2O)n1 [compound 0196305] |
| 71 | COc1ccc(-c2c(-c3ccc(OCc4ccc(Cl)cc4)cc3O)noc2C(F)(F)F)cc1OC [compound 0196306] |
| 94 | COc1ccc(-c2c(-c3ccc(OCc4ccc(Cl)cc4)cc3O)nn(C)c2C(F)(F)F)cc1OC [compound 0196311] |
| 51 | COc1ccc(-c2c(-c3ccc(OCc4ccc(Cl)cc4)cc3O)n[nH]c2C(F)(F)F)cc1 [compound 0196312] |
| 1 | Oc1cc(OCc2ccc(Cl)cc2)ccc1-c1cc(C(F)(F)F)[nH]n1 [compound 0196313] |
| 76 | Cn1nc(-c2ccc(OCc3ccc(Cl)cc3)cc2O)cc1C(F)(F)F [compound 0196314] |
| 35 | COc1ccc(-c2c(-c3ccc(OCc4ccc(Cl)cc4)cc3O)nn(C)c2C(F)(F)F)cc1 [compound 0196340] |
| 154 | Cn1nc(-c2ccc(OCCN3CCOCC3)cc2O)c(Oc2ccccc2Cl)c1C(F)(F)F [compound 0196341] |
| 1 | Oc1cc(OCc2ccc(Cl)cc2)ccc1-c1n[nH]c(C(F)(F)F)c1Oc1ccccc1Cl [compound 0196342] |
| 48 | Oc1cc(OCc2ccc(Cl)cc2)ccc1-c1n[nH]cc1Oc1ccccc1Cl [compound 0196343] |

| remaining activity at 100 µM [%] | Compound |
| --- | --- |
| 16 | Cc1ccc(-c2c(-c3ccc(OCc4ccc(Cl)cc4)cc3O)n[nH]c2C(F)(F)F)cc1 [compound 0196344] |
| 102 | Cc1ccc(-c2c[nH]nc2-c2ccc(OCc3ccc(Cl)cc3)cc2O)cc1 [compound 0196345] |
| 114 | Cc1ccc(-c2cn(C)nc2-c2ccc(OCc3ccc(Cl)cc3)cc2O)cc1 [compound 0196346] |
| 47 | Oc1cc(OCc2ccc(Cl)cc2)ccc1-c1n[nH]c(C(F)(F)F)c1-c1ccc(F)cc1 [compound 0196347] |
| 9 | Cn1nc(-c2ccc(OCc3ccc(Cl)cc3)cc2O)c(-c2ccc(F)cc2)c1C(F)(F)F [compound 0196348] |
| 135 | Cn1cc(-c2ccc(F)cc2)c(-c2ccc(OCc3ccc(Cl)cc3)cc2O)n1 [compound 0196349] |
| 18 | Oc1cc(OCc2ccc(Cl)cc2)ccc1-c1n[nH]cc1-c1cccc(Cl)c1 [compound 0196350] |
| 130 | Cn1cc(-c2cccc(Cl)c2)c(-c2ccc(OCc3ccc(Cl)cc3)cc2O)n1 [compound 0196351] |
| 65 | CCc1ccc(Oc2c(-c3ccc(OCc4ccc(Cl)cc4)cc3OC)nn(C)c2C(F)(F)F)cc1 [compound 0196352] |
| 122 | CCc1ccc(Oc2c(-c3ccc(OCc4ccc(Cl)cc4)cc3)nn(C)c2C(F)(F)F)cc1 [compound 0196353] |
| 82 | CCc1ccc(Oc2c(-c3ccc(OCc4ccc(Cl)c(Cl)c4)cc3O)nn(C)c2C(F)(F)F)cc1 [compound 0196354] |
| 25 | CCc1ccc(Oc2c(-c3ccc(OCc4ccc(Cl)c(Cl)c4)cc3O)n[nH]c2C(F)(F)F)cc1 [compound 0196355] |
| 68 | CCc1ccc(Oc2c(-c3ccc(OCCc4ccc(Cl)cc4)cc3O)nn(C)c2C(F)(F)F)cc1 [compound 0196356] |
| 28 | CCc1ccc(Oc2c(-c3ccc(OCCc4ccc(Cl)cc4)cc3O)n[nH]c2C(F)(F)F)cc1 [compound 0196357] |
| 98 | CCc1ccc(Oc2c(-c3ccc(OCc4ccc(OC)cc4)cc3O)nn(C)c2C(F)(F)F)cc1 [compound 0196358] |
| 57 | CCc1ccc(Oc2c(-c3ccc(OCc4ccc(OC)cc4)cc3O)n[nH]c2C(F)(F)F)cc1 [compound 0196359] |
| 100 | Cn1nc(-c2ccc(OCc3ccc(Cl)cc3)cc2O)c(-c2cc(C(F)(F)F)cc(C(F)(F)F)c2)c1C(F)(F)F [compound 0196360] |
| 0 | Cn1nc(C(F)(F)F)c(-c2cc(C(F)(F)F)cc(C(F)(F)F)c2)c1-c1ccc(OCc2ccc(Cl)cc2)cc1O [compound 0196361] |

The next lines start with the molecule.

| Compound | remaining activity at 100 µM [%] |
| --- | --- |
| CCc1ccc(Oc2c(-c3ccc(OCCc4cccc(C(F)(F)F)c4)cc3O)n[nH]c2C(F)(F)F)cc1 [NUCC-0176245] | 36 |
| CCc1ccc(Oc2c(-c3ccc(OCc4ccc(Cl)cc4)cc3O)n[nH]c2CC)cc1 [compound 0196282] | 87 |
| COc1ccc(-c2c(-c3ccc(OCc4ccc(Cl)cc4)cc3O)n[nH]c2C(F)(F)F)cc1OC [compound 0196283] | 4 |
| Cc1ccc(C)c(Oc2c[nH]nc2-c2ccc(OCc3ccc(Cl)cc3)cc2O)c1 [compound 0196284] | 59 |
| Cc1ccc(C)c(Oc2cn(C)nc2-c2ccc(OCc3ccc(Cl)cc3)cc2O)c1 [compound 0196285] | 118 |
| Cc1ccc(C)c(Oc2c[nH]nc2-c2ccc(OCc3cccc(Cl)c3)cc2O)c1 [compound 0196286] | 65 |
| Cc1ccc(C)c(Oc2cn(C)nc2-c2ccc(OCc3cccc(Cl)c3)cc2O)c1 [compound 0196287] | 115 |
| COc1cccc(COc2ccc(-c3n[nH]cc3Oc3cc(C)ccc3C)c(O)c2)c1 [compound 0196288] | 81 |
| COc1cccc(COc2ccc(-c3nn(C)cc3Oc3cc(C)ccc3C)c(O)c2)c1 [compound 0196289] | 136 |
| Cc1ccc(C)c(Oc2c[nH]nc2-c2ccc(OCc3ccc4ccccc4c3)cc2O)c1 [compound 0196290] | 92 |
| Cc1ccc(C)c(Oc2cn(C)nc2-c2ccc(OCc3ccc4ccccc4c3)cc2O)c1 [compound 0196291] | 110 |
| CCc1ccc(Oc2c(-c3ccc(OCc4ccc(Cl)cc4)cc3O)nn(C)c2CC)cc1 [compound 0196294] | 106 |
| CCc1ccc(Oc2c(-c3ccc(OCc4cccc(Cl)c4)cc3O)n[nH]c2C(F)(F)F)cc1 [compound 0196295] | 12 |

same assay, conditions: EMSA, 200 uM test compound

| Compound | Bound DNA (%) (200uM) |
| --- | --- |
| CCc1ccc(Oc2c[nH]nc2-c2ccc(OCC3CCCCC3)cc2O)cc1 [NUCC-0176256] | 100 |

same assay, conditions: EMSA, 200 uM test compound; read-out: Bound DNA (%) (200uM)

| Compound | remaining activity at 200 µM [%] |
| --- | --- |
| CCc1ccc(Oc2c[nH]nc2-c2ccc(OCc3ccc(Cl)cc3)cc2O)cc1 [NUCC-0176243] | 19 |
| CCc1ccc(Oc2c[nH]nc2-c2ccc(OCc3ccc(C(F)(F)F)cc3)cc2O)cc1 [NUCC-0176244] | 20 |
| CCc1ccc(Oc2c(-c3ccc(OCCc4cccc(C(F)(F)F)c4)cc3O)n[nH]c2C(F)(F)F)cc1 [NUCC-0176245] | 0 |
| CCc1ccc(Oc2c[nH]nc2-c2ccc(OCc3cnn(C)c3)cc2O)cc1 [NUCC-0176246] | 87 |
| Oc1cc(OCc2ccc(Cl)cc2)ccc1-c1n[nH]cc1Oc1ccccc1 [NUCC-0176247] | 18 |
| Cc1[nH]nc(-c2ccc(OCc3cnn(C)c3)cc2O)c1Oc1ccccc1 [NUCC-0176249] | 85 |
| Oc1cc(OCc2ccncc2)ccc1-c1n[nH]cc1Oc1ccccc1 [NUCC-0176251] | 62 |
| Cc1[nH]nc(-c2ccc(OCc3ccncc3)cc2O)c1Oc1ccccc1 [NUCC-0176252] | 87 |
| Cc1[nH]nc(-c2ccc(OCc3ccc(Cl)cc3)cc2O)c1Oc1ccccc1 [NUCC-0176253] | 39 |
| CCc1ccc(Oc2c[nH]nc2-c2ccc(OCc3ccncc3)cc2O)cc1 [NUCC-0176254] | 101 |
| Oc1cc(OCc2ccccc2)ccc1-c1n[nH]cc1Oc1ccccc1 [NUCC-0176255] | 11 |
| CCc1ccc(Oc2c[nH]nc2-c2ccc(OCc3ccc(F)cc3)cc2O)cc1 [NUCC-0176257] | 7 |
| CCc1ccc(Oc2c[nH]nc2-c2ccc(OCCc3ccc(F)cc3)cc2O)cc1 [NUCC-0176258] | 17 |
| Cc1[nH]nc(-c2ccc(OCc3ccc(F)cc3)cc2O)c1Oc1ccccc1 [NUCC-0176259] | 26 |
| CCc1ccc(Oc2cn(C)nc2-c2ccc(OCc3ccc(Cl)cc3)cc2O)cc1 [NUCC-0176260] | 113 |
| CCc1ccc(Oc2c[nH]nc2-c2ccc(OCCc3ccc(Cl)cc3)cc2O)cc1 [NUCC-0176261] | 25 |
| Cc1[nH]nc(-c2ccc(OCCc3ccc(Cl)cc3)cc2O)c1Oc1ccccc1 [NUCC-0176262] | 54 |

same assay, conditions: Table 1; concentration not printed in the table (FIG. 5 and 6 legends: 200 μM test compounds)

| Compound | % Fraction Bound [%] |
| --- | --- |
| CCc1ccc(Oc2c[nH]nc2-c2ccc(OCC3CCCCC3)cc2O)cc1 [NUCC-0176256] | 9.1 |
